{"source": "patent US20120171123A1", "about": "“USES AND COMPOSITIONS FOR TREATMENT OF RHEUMATOID ARTHRITIS” (priority 2006, published 2012)", "key": {"[1]": {"tested_on": "patients with long-standing RA who had inadequate responses to MTX", "experiment": "Study 1 (adalimumab + MTX vs placebo + MTX, 12-month RCT plus OLE): radiographic progression (TSS, JE, JSN)", "type": "in vivo, human", "experimental": "The study design included a 12 month, double blind, randomized, placebo-controlled trial.\n(§1) Patients were grouped into three cohorts based on baseline CRP concentrations: low (<1 mg/dL); intermediate (1-4 mg/dL); and high (>4 mg/dL). Analyses were further conducted in two categories of patients according to their change in CRP concentrations at Week 12: those with a ≧20% decrease in CRP from baseline; or those with a <20% decrease in CRP from baseline. The following efficacy and radiographic measures were analyzed at Week 52 in the three baseline CRP categories and in the two Week 12 change in CRP categories: DAS28, ACR 20/50/70, Health assessment questionnaire (HAQ), and Total Sharp score (TSS).\nTwo readers assessed X-rays performed at baseline (start of RCT), 1 year (end of RCT), and 3 years (post 2 years OLE). Changes from baseline in Total Sharp Score (TSS), Joint Erosions (JE), and Joint Space Narrowing (JSN) were calculated. ACR 20, 50, and 70 response rates, as well as TJC and SJC, were also measured."}, "[2]": {"tested_on": "MTX-naïve adult patients with active, early RA (<3 years)", "experiment": "Study J: individual clinical remission criteria (TJC=0, SJC=0, HAQ=0, morning stiffness=0)", "type": "in vivo, human", "experimental": "A total of 799 patients were enrolled. Baseline demographics and clinical characteristics of the patients enrolled in this study are described in Example 7. Baseline demographics and clinical characteristics were similar among the 3 arms, i.e., ada+mtx, ada alone, or mtx alone. […] After 1 and 2 years of therapy, the percentages of patients with ACR90 responses, TJC=0, SJC=0, HAQ=0, morning stiffness=0 minutes, and normal CRP were determined. Data are from the intention-to-treat (ITT) population with imputation used for missing values. Results were compared with the percentages of patients who achieved DAS28<2.6 or a Major Clinical Response (MCR)."}, "adult patients with RA": {"tested_on": "adult patients with RA", "experiment": "Study 1: HAQ change by CRP category", "type": "in vivo, human", "experimental": "407 patients with active RA enrolled in the 2 study arms. Of these patients, 299 (73.5%) patients completed the study until Week 52 and were evaluated.\nas §1"}, "[3]": {"tested_on": "MTX-naïve adult patients with active, early RA (<3 years)", "experiment": "Study J (adalimumab 40 mg eow + MTX vs adalimumab alone vs MTX alone, 2 years): ACR20/50/70/90 response and Major Clinical Response", "type": "in vivo, human", "settings": "for Major Clinical Response (ACR70 for ≧6 continuous months): over 2 years", "experimental": "This study was a 2-year, double-blind, active-comparator-controlled Phase III study conducted at 149 sites in North America, Europe, and Australia. […] MTX-naïve adult patients with active, early RA (<3 years) were included in the study. Further inclusion criteria included: SJC≧8 and TJC≧10; ESR≧28 mm/hr or CRP≧1.5 mg/dL; and RF-positivity or at least one joint erosion. […] MTX dosages were rapidly optimized to a maximum of 20 mg weekly.\nThe co-primary endpoints, comparing MTX alone with the combination at 1 year, were the ACR50 response (using non-responder imputation), and inhibition of radiographic progression, as measured by change in total Sharp score (TSS). In this study, the term “Major Clinical Response” (MCR) meant a continuous ACR70 response for 6 or more consecutive months.\nThe results of this study were evaluated using multiple criteria for clinical remission. This study (Study J) was a 2-year, double-blind, Phase III study.\nSecondary endpoints included DAS28<2.6 at year 1 and Major Clinical Response (MCR=ACR70 response for ≧6 continuous months during a 2-year period).\nStudy J was a 2-year, double-blind, Phase III study. […] MTX dosages were rapidly optimized to a maximum of 20 mg weekly. Mean changes in total Sharp score (TSS) were measured for patients who achieved American College of Rheumatology (ACR) response (ACR20, ACR50, and ACR70), as well as clinical remission by Disease Activity Score 28 (DAS28<2.6).\nAt 1 and 2 years, the American College of Rheumatology (ACR) responses (ACR20, ACR50, and ACR70), the Disease Activity Score 28 (DAS28), and the change (Δ) in Total Sharp Score (TSS) were determined for all patients. Results were analyzed for the intention-to-treat (ITT) population using imputation for missing data. Clinical remission was defined as DAS28<2.6. The mean ΔTSS values at 1 year and 2 years (N=791) were determined for patients in each ACR response category (ACR20/50/70) and for patients with DAS28<2.6\nPatients in the Ada+MTX and the MTX arms were classified according to level of clinical response (non-responder (<ACR20), ACR20, ACR50, or ACR70) and radiographic progression (Yes or No (ΔTSS≦0.5)). The ΔTSS was analyzed overall, and for ACR subgroups. This included determination of mean ΔTSS and probability plots. Analyses used observed data from patients completing 6 months or 2 years of treatment (no imputation)."}, "[4]": {"tested_on": "MTX-naïve adult patients with active, early RA (<3 years)", "experiment": "Study J: subject disposition and withdrawals", "settings": "2 years"}, "[5]": {"tested_on": "patients with long-standing, moderate to severe RA", "experiment": "Study 5 (open-label extension, adalimumab 40 mg eow + MTX, into 7th year): long-term efficacy (ACR, DAS28, TJC, SJC, HAQ) and withdrawals", "type": "in vivo, human", "settings": "Year 7", "experimental": "After these trials, patients were eligible to enroll in two separate OLE studies: Study 4 and Study 5. Patients were evaluated for efficacy and safety every 3 months.\nEfficacy outcomes were evaluated as observed data: DAS28; ACR 20/50/70; Tender Joint Count (TJC); Swollen Joint Count (SJC); and HAQ Disability Index. Baseline demographics and disease characteristics were similar in both Study 4 and Study 5 consistent with moderate to severe RA, as shown below in Table 64: […]"}, "[6]": {"settings": "week 52, baseline CRP 1-4 mg/dL"}, "[7]": {"settings": "6 months, completers, observed data"}, "[8]": {"settings": "week 52 (1 year), non-responder imputation"}, "[9]": {"settings": "3 years, initially randomized to 40 mg eow"}}, "note": "Marks after values point to notes of the source that are not given here."}
{"compound": "CN(Cc1cnc2nc(N)nc(N)c2n1)c1ccc(C(=O)N[C@@H](CCC(=O)O)C(=O)O)cc1", "note": "[mtx alone, methotrexate]", "values": [{"measurement": "Erosions mean change", "setting": "[1]; [6]", "result": 1.7}, {"measurement": "TSS mean change", "setting": "[1]; week 52, baseline CRP 1-4 mg/dL, listed as MTX", "result": 3.0}, {"measurement": "TSS mean change", "setting": "[1]; week 52, baseline CRP 1-4 mg/dL, listed as Mtx", "result": "3.25 (n = 54)"}, {"measurement": "Erosions mean change", "setting": "[1]; week 52, baseline CRP <1 mg/dL", "result": 1.5}, {"measurement": "TSS mean change", "setting": "[1]; week 52, baseline CRP <1 mg/dL, listed as MTX", "result": 2.1}, {"measurement": "TSS mean change", "setting": "[1]; week 52, baseline CRP <1 mg/dL, listed as Mtx", "result": "1.8 (n = 71)"}, {"measurement": "Erosions mean change", "setting": "[1]; week 52, baseline CRP >4 mg/dL", "result": 2.1}, {"measurement": "TSS mean change", "setting": "[1]; week 52, baseline CRP >4 mg/dL, listed as MTX", "result": 4.5}, {"measurement": "TSS mean change", "setting": "[1]; week 52, baseline CRP >4 mg/dL, listed as Mtx", "result": "4.23 (n = 15)"}, {"measurement": "HAQ = 0", "setting": "[2]; 1 year", "result": 19, "unit": "% patients"}, {"measurement": "Morning Stiffness = 0", "setting": "[2]; 1 year", "result": 31, "unit": "% patients"}, {"measurement": "SJC = 0", "setting": "[2]; 1 year", "result": 17, "unit": "% patients"}, {"measurement": "TJC = 0", "setting": "[2]; 1 year", "result": 14, "unit": "% patients"}, {"measurement": "AM (morning) stiffness = 0", "setting": "[2]; 2 years", "result": "30 % of patients"}, {"measurement": "HAQ = 0", "setting": "[2]; 2 years", "result": "19 % of patients"}, {"measurement": "SJC = 0", "setting": "[2]; 2 years", "result": "19 % of patients"}, {"measurement": "TJC = 0", "setting": "[2]; 2 years", "result": "21 % of patients"}, {"measurement": "mean change in HAQ", "setting": "adult patients with RA; week 52, <20% decrease in CRP at week 12", "result": "−0.29"}, {"measurement": "HAQ mean change", "setting": "adult patients with RA; [6]", "result": "−0.4"}, {"measurement": "HAQ mean change", "setting": "adult patients with RA; week 52, baseline CRP <1 mg/dL", "result": "−0.4"}, {"measurement": "HAQ mean change", "setting": "adult patients with RA; week 52, baseline CRP >4 mg/dL", "result": "−0.3"}, {"measurement": "mean change in HAQ", "setting": "adult patients with RA; week 52, ≧20% decrease in CRP at week 12", "result": "−0.48"}, {"measurement": "ACR70", "setting": "[3]; 2 years, completers, observed data", "result": 43, "unit": "%"}, {"measurement": "ACR20", "setting": "[3]; [7]", "result": 79.3, "unit": "%"}, {"measurement": "ACR50", "setting": "[3]; [7]", "result": 51.6, "unit": "%"}, {"measurement": "ACR70", "setting": "[3]; [7]", "result": 28.6, "unit": "%"}, {"measurement": "Major Clinical Response (ACR70 for ≧6 continuous months)", "setting": "[3]", "result": "27 % of patients"}, {"measurement": "ACR70", "setting": "[3]; week 52 (1 year)", "result": "28 % of patients"}, {"measurement": "ACR90", "setting": "[3]; week 52 (1 year)", "result": "13 % of patients"}, {"measurement": "ACR20", "setting": "[3]; [8]", "result": "63# % of patients"}, {"measurement": "ACR50", "setting": "[3]; [8]", "result": "46 % of patients"}, {"measurement": "ACR20", "setting": "[3]; week 52 (1 year), non-responder imputation, listed as MTX alone", "result": "63 % of patients"}, {"measurement": "ACR20", "setting": "[3]; week 104 (2 years)", "result": "56 % of patients"}, {"measurement": "ACR50", "setting": "[3]; week 104 (2 years)", "result": "43 % of patients"}, {"measurement": "ACR70", "setting": "[3]; week 104 (2 years)", "result": "28 % of patients"}, {"measurement": "ACR90", "setting": "[3]; week 104 (2 years)", "result": "13 % of patients"}, {"measurement": "withdrawn, reason AE", "setting": "[4]", "result": 8, "unit": "%"}, {"measurement": "withdrawn, reason lack of efficacy", "setting": "[4]", "result": 18, "unit": "%"}]}
{"compound": "adalimumab: human anti-TNF mAb (HUMIRA, Abbott Laboratories), described in U.S. Pat. No. 6,090,382 as D2E7", "values": [{"measurement": "patients with radiographic improvement (change <−0.5 units), total sharp score", "setting": "[1]; 3 years", "result": 28, "unit": "%"}, {"measurement": "patients with radiographic improvement, joint erosion score", "setting": "[1]; 3 years", "result": 29, "unit": "%"}, {"measurement": "patients with radiographic improvement, joint space narrowing score", "setting": "[1]; 3 years", "result": 20, "unit": "%"}, {"measurement": "patients with no radiographic progression, joint erosion score", "setting": "[1]; [9]", "result": 71, "unit": "%"}, {"measurement": "patients with no radiographic progression, joint space narrowing score", "setting": "[1]; [9]", "result": 73, "unit": "%"}, {"measurement": "patients with no radiographic progression, total sharp score", "setting": "[1]; [9]", "result": 62, "unit": "%"}, {"measurement": "HAQ = 0", "setting": "[2]; 1 year", "result": 17, "unit": "% patients"}, {"measurement": "Morning Stiffness = 0", "setting": "[2]; 1 year", "result": 32, "unit": "% patients"}, {"measurement": "SJC = 0", "setting": "[2]; 1 year", "result": 16, "unit": "% patients"}, {"measurement": "TJC = 0", "setting": "[2]; 1 year", "result": 18, "unit": "% patients"}, {"measurement": "AM (morning) stiffness = 0", "setting": "[2]; 2 years", "result": "30 % of patients"}, {"measurement": "HAQ = 0", "setting": "[2]; 2 years", "result": "19 % of patients"}, {"measurement": "SJC = 0", "setting": "[2]; 2 years", "result": "19 % of patients"}, {"measurement": "TJC = 0", "setting": "[2]; 2 years", "result": "15 % of patients"}, {"measurement": "patients achieving clinical remission (DAS28<2.6)", "setting": "[5]", "result": "Over 40%"}, {"measurement": "Major Clinical Response (ACR70 for ≧6 continuous months)", "setting": "[3]", "result": "25 % of patients"}, {"measurement": "ACR70", "setting": "[3]; week 52 (1 year)", "result": "26 % of patients"}, {"measurement": "ACR90", "setting": "[3]; week 52 (1 year)", "result": "8 % of patients"}, {"measurement": "ACR20", "setting": "[3]; [8]", "result": "54 % of patients"}, {"measurement": "ACR50", "setting": "[3]; [8]", "result": "42 % of patients"}, {"measurement": "ACR20", "setting": "[3]; week 104 (2 years)", "result": "50 % of patients"}, {"measurement": "ACR50", "setting": "[3]; week 104 (2 years)", "result": "37 % of patients"}, {"measurement": "ACR70", "setting": "[3]; week 104 (2 years)", "result": "28 % of patients"}, {"measurement": "ACR90", "setting": "[3]; week 104 (2 years)", "result": "9 % of patients"}, {"measurement": "withdrawn, reason lack of efficacy", "setting": "[4]", "result": 19, "unit": "%"}]}
